# Patent publication US9540366B2, “Ring-fused heterocyclic compound” (Kyowa Hakko Kirin Co., Ltd., priority 2012, dated 2017)
# Like-named read-outs stand apart in the source and are kept apart here.
# Target: T1, human Cav3.2 T-type Ca2+ channel (Homo sapiens, UniProt O95180)
# T1 construct: expressed in transfected cells; host or cells: KJMGER8 cells (Namalwa cell-derived cell line)
# Experiment: Inhibitory effect for intracellular calcium response via Cav3.2 T-type Ca2+ channels (FLIPR Calcium 3 Assay Kit)
# Format: cell-based
# [1] = human Cav3.2-expressing KJMGER8 cells (Namalwa-derived), calcium response induced by 5 mmol/L CaCl2, 3 μmol/L mibefradil as reference, read-out: IC50 for the human Cav3.2 T-type Ca2+ current
# T1 sequence (O95180 whole entry): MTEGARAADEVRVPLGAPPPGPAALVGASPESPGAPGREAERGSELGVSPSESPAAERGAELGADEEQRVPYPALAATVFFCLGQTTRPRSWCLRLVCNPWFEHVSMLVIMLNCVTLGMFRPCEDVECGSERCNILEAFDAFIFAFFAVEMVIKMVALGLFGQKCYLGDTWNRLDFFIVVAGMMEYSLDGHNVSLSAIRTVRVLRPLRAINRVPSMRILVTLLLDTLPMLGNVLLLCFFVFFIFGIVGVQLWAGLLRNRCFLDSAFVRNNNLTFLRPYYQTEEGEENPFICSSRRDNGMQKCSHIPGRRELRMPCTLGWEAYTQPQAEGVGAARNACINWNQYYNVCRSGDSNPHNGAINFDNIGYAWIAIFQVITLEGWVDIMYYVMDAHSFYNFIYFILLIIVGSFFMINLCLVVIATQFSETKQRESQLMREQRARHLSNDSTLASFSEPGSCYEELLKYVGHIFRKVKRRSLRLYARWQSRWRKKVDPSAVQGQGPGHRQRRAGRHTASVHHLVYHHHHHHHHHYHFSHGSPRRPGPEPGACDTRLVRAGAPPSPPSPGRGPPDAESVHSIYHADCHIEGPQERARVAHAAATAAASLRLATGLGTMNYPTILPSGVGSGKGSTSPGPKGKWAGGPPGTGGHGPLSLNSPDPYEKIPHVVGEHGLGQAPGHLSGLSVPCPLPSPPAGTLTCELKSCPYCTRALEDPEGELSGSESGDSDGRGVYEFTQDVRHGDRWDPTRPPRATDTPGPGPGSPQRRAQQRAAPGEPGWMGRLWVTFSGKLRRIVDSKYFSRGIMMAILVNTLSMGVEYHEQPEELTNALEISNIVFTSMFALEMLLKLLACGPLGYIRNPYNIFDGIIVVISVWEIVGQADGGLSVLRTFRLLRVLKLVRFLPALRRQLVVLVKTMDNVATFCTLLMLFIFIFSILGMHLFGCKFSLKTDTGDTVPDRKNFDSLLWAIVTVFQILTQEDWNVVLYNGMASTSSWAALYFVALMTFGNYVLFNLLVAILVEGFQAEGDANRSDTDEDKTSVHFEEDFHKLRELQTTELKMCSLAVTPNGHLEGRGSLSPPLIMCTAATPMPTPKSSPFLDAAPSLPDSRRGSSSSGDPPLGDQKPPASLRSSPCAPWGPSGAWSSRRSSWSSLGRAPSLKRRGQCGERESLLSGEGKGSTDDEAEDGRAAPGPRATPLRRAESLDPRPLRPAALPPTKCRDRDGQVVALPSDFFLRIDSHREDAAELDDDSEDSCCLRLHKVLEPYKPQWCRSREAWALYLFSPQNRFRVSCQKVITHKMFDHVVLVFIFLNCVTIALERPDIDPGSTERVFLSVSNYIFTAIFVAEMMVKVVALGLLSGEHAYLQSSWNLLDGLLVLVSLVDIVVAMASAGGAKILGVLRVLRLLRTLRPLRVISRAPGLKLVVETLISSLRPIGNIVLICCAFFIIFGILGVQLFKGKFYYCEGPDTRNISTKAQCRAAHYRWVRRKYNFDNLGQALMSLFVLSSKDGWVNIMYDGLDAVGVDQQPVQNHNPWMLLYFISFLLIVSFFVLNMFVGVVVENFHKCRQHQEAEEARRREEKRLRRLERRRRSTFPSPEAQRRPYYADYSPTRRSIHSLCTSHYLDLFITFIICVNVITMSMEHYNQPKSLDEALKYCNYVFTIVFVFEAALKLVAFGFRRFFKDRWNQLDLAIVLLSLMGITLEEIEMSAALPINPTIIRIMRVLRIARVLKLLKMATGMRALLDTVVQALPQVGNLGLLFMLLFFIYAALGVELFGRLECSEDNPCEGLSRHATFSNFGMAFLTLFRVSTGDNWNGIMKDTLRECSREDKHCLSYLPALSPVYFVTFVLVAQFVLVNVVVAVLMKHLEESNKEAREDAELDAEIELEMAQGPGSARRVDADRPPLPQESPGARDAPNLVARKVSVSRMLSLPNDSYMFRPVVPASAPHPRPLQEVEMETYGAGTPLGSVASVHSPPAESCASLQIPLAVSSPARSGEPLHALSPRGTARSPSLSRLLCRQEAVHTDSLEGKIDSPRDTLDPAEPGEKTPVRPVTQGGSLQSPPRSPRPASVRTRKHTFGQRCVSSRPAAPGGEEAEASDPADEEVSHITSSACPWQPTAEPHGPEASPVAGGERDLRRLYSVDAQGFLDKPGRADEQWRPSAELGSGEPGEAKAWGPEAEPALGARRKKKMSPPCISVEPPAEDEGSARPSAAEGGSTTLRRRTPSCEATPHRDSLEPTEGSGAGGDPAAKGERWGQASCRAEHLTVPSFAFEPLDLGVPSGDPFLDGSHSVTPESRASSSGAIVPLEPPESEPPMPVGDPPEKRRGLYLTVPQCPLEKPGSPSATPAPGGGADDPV
Compound,IC50 [nM],IC50 [1] [nM]
"CCOC(C)(C)c1nc2cc(C(=O)NC3CCOCC3)cc(C)n2c1CC1CCC(F)(F)CC1 [Compound 1, 3-[(4,4-Difluorocyclohexyl)methyl]-2-(2-ethoxypropan-2-yl)-5-methyl-N-(tetrahydro-2H-pyran-4-yl)imidazo[1,2-a]pyridine-7-carboxamide]",≤ 100,–
"CC1(CNC(=O)c2cc(C#N)n3c(CC4CCC(F)(F)CC4)c(C(F)(F)F)nc3c2)CCCO1 (stereo not shown) [Compound 2, 5-Cyano-3-[(4,4-difluorocyclohexyl)methyl]-N-[(2-methyltetrahydrofuran-2-yl)methyl]-2-(trifluoromethyl)imidazo[1,2-a]pyridine-7-carboxamide]",≤ 100,–
"N#Cc1cc(C(=O)NCC2CCOC2)cc2nc(C(F)(F)F)c(CC3CCC(F)(F)CC3)n12 (stereo not shown) [Compound 3, 5-Cyano-3-[(4,4-difluorocyclohexyl)methyl]-N-[(tetrahydrofuran-3-yl)methyl]-2-(trifluoromethyl)imidazo[1,2-a]pyridine-7-carboxamide]",≤ 100,–
"Cc1cc(C(=O)NC2CCOCC2)cc2nc(C(C)(C)C)c(CC3CCC(F)(F)CC3)n12 [Compound 4, 2-tert-Butyl-3-[(4,4-difluorocyclohexyl)methyl]-5-methyl-N-(tetrahydro-2H-pyran-4-yl)imidazo[1,2-a]pyridine-7-carboxamide]",≤ 100,–
"CC(F)(F)c1nc2cc(C(=O)Nc3ccccc3)c(Cl)cn2c1CC1CCC(F)(F)CC1 [Compound 5, 6-Chloro-3-[(4,4-difluorocyclohexyl)methyl]-2-(1,1-difluoroethyl)-N-phenylimidazo[1,2-a]pyridine-7-carboxamide]",≤ 100,–
"O=C(Nc1ccccc1)c1cc2nc(C3CC3)c(CC3CCC(F)(F)CC3)n2cc1Cl [Compound 6, 6-Chloro-2-cyclopropyl-3-[(4,4-difluorocyclohexyl)methyl]-N-phenylimidazo[1,2-a]pyridine-7-carboxamide]",≤ 100,–
"O=C(Nc1ccccc1)c1cc2nc(C3CC(F)(F)C3)c(CC3CCC(F)(F)CC3)n2cc1Cl [Compound 7, 6-Chloro-2-(3,3-difluorocyclobutyl)-3-[(4,4-difluorocyclohexyl)methyl]-N-phenylimidazo[1,2-a]pyridine-7-carboxamide]",≤ 100,–
"Cc1cc(C(=O)Nc2ccccc2)cc2nc(C(C)(C)O)c(CC3CCC(F)(F)CC3)n12 [Compound 8, 3-[(4,4-Difluorocyclohexyl)methyl]-2-(2-hydroxypropan-2-yl)-5-methyl-N-phenylimidazo[1,2-a]pyridine-7-carboxamide]",≤ 100,–
"Cc1cc(C(=O)NC2CCC(F)(F)CC2)cc2nc(C(C)(C)O)c(CC3CCC(F)(F)CC3)n12 [Compound 9, N-(4,4-Difluorocyclohexyl)-3-[(4,4-difluorocyclohexyl)methyl]-2-(2-hydroxypropan-2-yl)-5-methylimidazo[1,2-a]pyridine-7-carboxamide]",–,≤ 100
"Cc1cc(C(=O)NC2CC(F)(F)C2)cc2nc(C(C)(C)O)c(CC3CCC(F)(F)CC3)n12 [Compound 10, N-(3,3-Difluorocyclobutyl)-3-[(4,4-difluorocyclohexyl)methyl]-2-(2-hydroxypropan-2-yl)-5-methylimidazo[1,2-a]pyridine-7-carboxamide]",≤ 100,–
"[2H]C([2H])([2H])OC(C)(C)c1nc2cc(C(=O)NC3CCOCC3)cc(C)n2c1CC1CCC(F)(F)CC1 [Compound 11, 3-[(4,4-Difluorocyclohexyl)methyl]-2-(2-methoxy-d3-propan-2-yl)-5-methyl-N-(tetrahydro-2H-pyran-4-yl)imidazo[1,2-a]pyridine-7-carboxamide]",≤ 100,–
"O=C(NC1CCC(F)(F)CC1)c1cc2nc(C3CC3)c(CC3CCC(F)(F)CC3)n2cc1Cl [Compound 14, 6-Chloro-2-cyclopropyl-N-(4,4-difluorocyclohexyl)-3-[(4,4-difluorocyclohexyl)methyl]imidazo[1,2-a]pyridine-7-carboxamide]",≤ 100,–
"CC(=O)c1nc2cc(C(=O)Nc3ccccc3)cc(C)n2c1CC1CCC(F)(F)CC1 [Compound 19, 2-Acetyl-3-[(4,4-difluorocyclohexyl)methyl]-5-methyl-N-phenylimidazo[1,2-a]pyridine-7-carboxamide]",≤ 100,–
"Cc1cc(C(=O)Nc2ccccc2)cc2nc(C(C)O)c(CC3CCC(F)(F)CC3)n12 (stereo not shown) [Compound 20, 3-[(4,4-Difluorocyclohexyl)methyl]-2-(1-hydroxyethyl)-5-methyl-N-phenylimidazo[1,2-a]pyridine-7-carboxamide]",–,≤ 100
"CC(F)(F)c1nc2cc(C(=O)NCC3CC3)c(Cl)cn2c1CC1CCC(F)(F)CC1 [Compound 21, 6-Chloro-N-(cyclopropylmethyl)-3-[(4,4-difluorocyclohexyl)methyl]-2-(1,1-difluoroethyl)imidazo[1,2-a]pyridine-7-carboxamide]",≤ 100,–
"CC(F)(F)c1nc2cc(C(=O)NC3CCC3)c(Cl)cn2c1CC1CCC(F)(F)CC1 [Compound 22, 6-Chloro-N-cyclobutyl-3-[(4,4-difluorocyclohexyl)methyl]-2-(1,1-difluoroethyl)imidazo[1,2-a]pyridine-7-carboxamide]",≤ 100,–

Compound,IC50 [nM],IC50 [1] [nM]
"CC1(C)CC(NC(=O)c2cc3nc(C(C)(F)F)c(CC4CCC(F)(F)CC4)n3cc2Cl)CCO1 (stereo not shown) [Compound 23, 6-Chloro-3-[(4,4-difluorocyclohexyl)methyl]-2-(1,1-difluoroethyl)-N-(2,2-dimethyltetrahydro-2H-pyran-4-yl)imidazo[1,2-a]pyridine-7-carboxamide]",≤ 100,–
"CC(F)(F)c1nc2cc(C(=O)NCC3CCOC3)c(Cl)cn2c1CC1CCC(F)(F)CC1 (stereo not shown) [Compound 24, 6-Chloro-3-[(4,4-difluorocyclohexyl)methyl]-2-(1,1-difluoroethyl)-N-[(tetrahydrofuran-3-yl)methyl]imidazo[1,2-a]pyridine-7-carboxamide]",≤ 100,–
"CC(F)(F)c1nc2cc(C(=O)NC3CCC(O)CC3)c(Cl)cn2c1CC1CCC(F)(F)CC1 (stereo not shown) [Compound 25, 6-Chloro-3-[(4,4-difluorocyclohexyl)methyl]-2-(1,1-difluoroethyl)-N-(4-hydroxycyclohexyl)imidazo[1,2-a]pyridine-7-carboxamide]",≤ 100,–
"CC(C)(O)CNC(=O)c1cc2nc(C(C)(F)F)c(CC3CCC(F)(F)CC3)n2cc1Cl [Compound 26, 6-Chloro-3-[(4,4-difluorocyclohexyl)methyl]-2-(1,1-difluoroethyl)-N-(2-hydroxy-2-methylpropyl)imidazo[1,2-a]pyridine-7-carboxamide]",≤ 100,–
"CCC(F)(F)c1nc2cc(C(=O)NC3CCOCC3)cc(C)n2c1CC1CCC(F)(F)CC1 [Compound 27, 3-[(4,4-Difluorocyclohexyl)methyl]-2-(1,1-difluoropropyl)-5-methyl-N-(tetrahydro-2H-pyran-4-yl)imidazo[1,2-a]pyridine-7-carboxamide]",≤ 100,–
"Cc1cc(NC(=O)c2cc3nc(C(C)(C)Cl)c(S(=O)(=O)N4CC(F)(F)C4)n3cc2Cl)on1 [Compound 28, 6-Chloro-2-(2-chloropropan-2-yl)-3-(3,3-difluoroazetidin-1-ylsulfonyl)-N-(3-methylisoxazol-5-yl)imidazo[1,2-a]pyridine-7-carboxamide]",–,≤ 100
"Cc1cc(C(=O)NC2CCOCC2)cc2nc(C(C)C)c(N(C)C3CCCCC3)n12 [Compound 34, 3-[Cyclohexyl(methyl)amino]-2-isopropyl-5-methyl-N-(tetrahydro-2H-pyran-4-yl)imidazo[1,2-a]pyridine-7-carboxamide]",–,≤ 100
O=C(NC1CCOCC1)c1cc(Br)n2c(CC3CCC(F)(F)CC3)c(C(F)(F)F)nc2c1 [Compound 39],≤ 100,–
"O=Cc1cc(C(=O)NC2CCOCC2)cc2nc(C(F)(F)F)c(CC3CCC(F)(F)CC3)n12 [Compound 45, 3-[(4,4-Difluorocyclohexyl)methyl]-5-formyl-N-(tetrahydro-2H-pyran-4-yl)-2-(trifluoromethyl)imidazo[1,2-a]pyridine-7-carboxamide]",≤ 100,–
"O=C(NC1CCOCC1)c1cc(CF)n2c(CC3CCC(F)(F)CC3)c(C(F)(F)F)nc2c1 [Compound 47, 3-[(4,4-Difluorocyclohexyl)methyl]-5-(fluoromethyl)-N-(tetrahydro-2H-pyran-4-yl)-2-(trifluoromethyl)imidazo[1,2-a]pyridine-7-carboxamide]",≤ 100,–
"O=C(NC1CCOCC1)c1cc(C(F)F)n2c(CC3CCC(F)(F)CC3)c(C(F)(F)F)nc2c1 [Compound 48, 3-[(4,4-Difluorocyclohexyl)methyl]-5-(difluoromethyl)-N-(tetrahydro-2H-pyran-4-yl)-2-(trifluoromethyl)imidazo[1,2-a]pyridine-7-carboxamide]",≤ 100,–
"O=C(NC1CCOCC1)c1cc(O)n2c(CC3CCC(F)(F)CC3)c(C(F)(F)F)nc2c1 [Compound 49, 3-[(4,4-Difluorocyclohexyl)methyl]-5-hydroxy-N-(tetrahydro-2H-pyran-4-yl)-2-(trifluoromethyl)imidazo[1,2-a]pyridine-7-carboxamide]",≤ 100,–
"C#Cc1cc(C(=O)NC2CCOCC2)cc2nc(C(F)(F)F)c(CC3CCC(F)(F)CC3)n12 [Compound 50, 3-[(4,4-Difluorocyclohexyl)methyl]-5-ethynyl-N-(tetrahydro-2H-pyran-4-yl)-2-(trifluoromethyl)imidazo[1,2-a]pyridine-7-carboxamide]",–,≤ 100
"CC(C)(O)CNC(=O)c1cc(C#N)n2c(CC3CCC(F)(F)CC3)c(C(F)(F)F)nc2c1 [Compound 51, 5-Cyano-3-[(4,4-difluorocyclohexyl)methyl]-N-(2-hydroxy-2-methylpropyl)-2-(trifluoromethyl)imidazo[1,2-a]pyridine-7-carboxamide]",≤ 100,–
"N#Cc1cc(C(=O)Nc2ccccc2N)cc2nc(C(F)(F)F)c(CC3CCC(F)(F)CC3)n12 [Compound 52, N-(2-Aminophenyl)-5-cyano-3-[(4,4-difluorocyclohexyl)methyl]-2-(trifluoromethyl)imidazo[1,2-a]pyridine-7-carboxamide]",≤ 100,–
